The results in this text go back to patent publication US20230167114A1, “MACROCYCLIC JAK INHIBITOR AND USE THEREOF” (Biopolar Hongye (Guangdong) Pharmaceutical Co., Ltd., priority 2020, published 2023).

Each structure is given as a SMILES string.

Type in all cases: biochemical
One assay concerns the target JAK1 (Homo sapiens, UniProt P23458). The assay can be described thus: JAK kinase activity, homogeneous time-resolved fluorescence (JAK1 reaction system). Particulars: ATP 2 μM, JAK1 protein 0.2 ng/μL; read-out: JAK 1 activity. As for the experimental part: (§1) The activity measurement method of JAK kinase was to use homogeneous time-resolved fluorescence technique. The reaction was performed in 384 shallow well plates with a total reaction volume of 10 μL. The mixture of kinase protein, compound, ATP and substrate was carried out in a reaction buffer of 50 mM Hepes (pH7.0), NaN3 0.02%, BSA 0.01%, 0.1 mM orthocanadate, 5 mM MgCl2, and 1 mM DTT. After reacting for 1 hour, antibody capable of recognizing substrate phosphorylation and dye XL-615 and detection buffer (Cisbio) containing EDTA were added to the system. The reaction signal of kinase was detected by PE company's porous plate detector. The parameter settings were excitation light at 320 nm, emission light at 615 nm and 665 nm. The activity of JAK is indirectly reflected by the signal ratio of 665 nm and 615 nm. In the reaction, the background well without enzyme and the total enzyme activity well without compound were set.
(§2) The IC50 value of the compound inhibiting protein was obtained by the formula: Y=100/(1+10^((Log IC50−X)*HillSlope)).
In JAK1 reaction system, the concentration of ATP was 2 μM, and the concentration of JAK1 protein was 0.2 ng/μL.

In a further assay the target is JAK2 (Homo sapiens, UniProt O60674). The assay can be described thus: JAK kinase activity, homogeneous time-resolved fluorescence (JAK2 reaction system). Particulars: ATP 2 μM, JAK2 protein 0.01 ng/μL. The procedure:
as §1, §2
In JAK2 reaction system, the concentration of ATP was 2 μM, and the concentration of JAK2 protein was 0.01 ng/μL.

In a further assay the target is T1, JAK3 (Homo sapiens, UniProt P52333).
T1 sequence (P52333 1-1124): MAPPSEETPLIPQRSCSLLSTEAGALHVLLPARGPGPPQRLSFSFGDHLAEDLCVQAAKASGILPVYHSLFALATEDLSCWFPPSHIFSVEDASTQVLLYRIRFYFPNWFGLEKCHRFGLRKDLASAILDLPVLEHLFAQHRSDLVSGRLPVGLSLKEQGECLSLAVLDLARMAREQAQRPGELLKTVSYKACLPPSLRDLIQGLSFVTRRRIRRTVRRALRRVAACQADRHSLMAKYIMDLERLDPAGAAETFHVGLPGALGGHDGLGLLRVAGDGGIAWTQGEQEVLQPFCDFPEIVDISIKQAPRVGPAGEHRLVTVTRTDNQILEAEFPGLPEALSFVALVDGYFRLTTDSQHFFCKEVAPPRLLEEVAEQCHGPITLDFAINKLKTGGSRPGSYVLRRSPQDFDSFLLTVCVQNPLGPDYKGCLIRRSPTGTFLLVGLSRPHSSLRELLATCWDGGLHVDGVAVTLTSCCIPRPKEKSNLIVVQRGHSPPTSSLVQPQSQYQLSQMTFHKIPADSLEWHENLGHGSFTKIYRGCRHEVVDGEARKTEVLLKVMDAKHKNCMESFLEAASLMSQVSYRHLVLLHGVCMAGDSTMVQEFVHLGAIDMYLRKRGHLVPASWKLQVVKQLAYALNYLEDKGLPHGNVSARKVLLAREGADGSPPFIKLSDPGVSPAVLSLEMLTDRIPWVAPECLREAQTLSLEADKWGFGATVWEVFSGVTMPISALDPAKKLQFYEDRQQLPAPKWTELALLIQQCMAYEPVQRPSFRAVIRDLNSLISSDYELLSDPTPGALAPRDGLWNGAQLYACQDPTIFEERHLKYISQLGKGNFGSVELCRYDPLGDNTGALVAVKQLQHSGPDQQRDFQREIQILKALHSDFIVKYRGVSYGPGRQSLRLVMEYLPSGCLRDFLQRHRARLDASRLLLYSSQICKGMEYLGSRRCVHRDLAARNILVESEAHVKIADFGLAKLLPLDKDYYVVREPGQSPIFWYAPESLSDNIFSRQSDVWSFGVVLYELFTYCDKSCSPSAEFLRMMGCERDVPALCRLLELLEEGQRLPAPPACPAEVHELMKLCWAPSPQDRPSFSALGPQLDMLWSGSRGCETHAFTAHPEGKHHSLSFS
The assay can be described thus: JAK kinase activity, homogeneous time-resolved fluorescence (JAK3 reaction system). The note with it: ATP 2 μM, JAK3 protein 0.04 ng/μL; read-out: JAK 3 activity. As for the experimental part:
as §1, §2
In JAK3 reaction system, the concentration of ATP was 2 μM, and the concentration of JAK3 protein was 0.04 ng/μL.

The target of a further assay is TYK2 (Homo sapiens, UniProt P29597). The assay can be described thus: JAK kinase activity, homogeneous time-resolved fluorescence (TYK2 reaction system). The note with it: ATP 2 μM, TYK2 protein 0.2 ng/μL; read-out: TYK 2 activity. The procedure:
as §1, §2
In TYK2 reaction system, the concentration of ATP was 2 μM and the concentration of TYK2 protein was 0.2 ng/μL.

Chain of TYK2 (P29597 whole entry): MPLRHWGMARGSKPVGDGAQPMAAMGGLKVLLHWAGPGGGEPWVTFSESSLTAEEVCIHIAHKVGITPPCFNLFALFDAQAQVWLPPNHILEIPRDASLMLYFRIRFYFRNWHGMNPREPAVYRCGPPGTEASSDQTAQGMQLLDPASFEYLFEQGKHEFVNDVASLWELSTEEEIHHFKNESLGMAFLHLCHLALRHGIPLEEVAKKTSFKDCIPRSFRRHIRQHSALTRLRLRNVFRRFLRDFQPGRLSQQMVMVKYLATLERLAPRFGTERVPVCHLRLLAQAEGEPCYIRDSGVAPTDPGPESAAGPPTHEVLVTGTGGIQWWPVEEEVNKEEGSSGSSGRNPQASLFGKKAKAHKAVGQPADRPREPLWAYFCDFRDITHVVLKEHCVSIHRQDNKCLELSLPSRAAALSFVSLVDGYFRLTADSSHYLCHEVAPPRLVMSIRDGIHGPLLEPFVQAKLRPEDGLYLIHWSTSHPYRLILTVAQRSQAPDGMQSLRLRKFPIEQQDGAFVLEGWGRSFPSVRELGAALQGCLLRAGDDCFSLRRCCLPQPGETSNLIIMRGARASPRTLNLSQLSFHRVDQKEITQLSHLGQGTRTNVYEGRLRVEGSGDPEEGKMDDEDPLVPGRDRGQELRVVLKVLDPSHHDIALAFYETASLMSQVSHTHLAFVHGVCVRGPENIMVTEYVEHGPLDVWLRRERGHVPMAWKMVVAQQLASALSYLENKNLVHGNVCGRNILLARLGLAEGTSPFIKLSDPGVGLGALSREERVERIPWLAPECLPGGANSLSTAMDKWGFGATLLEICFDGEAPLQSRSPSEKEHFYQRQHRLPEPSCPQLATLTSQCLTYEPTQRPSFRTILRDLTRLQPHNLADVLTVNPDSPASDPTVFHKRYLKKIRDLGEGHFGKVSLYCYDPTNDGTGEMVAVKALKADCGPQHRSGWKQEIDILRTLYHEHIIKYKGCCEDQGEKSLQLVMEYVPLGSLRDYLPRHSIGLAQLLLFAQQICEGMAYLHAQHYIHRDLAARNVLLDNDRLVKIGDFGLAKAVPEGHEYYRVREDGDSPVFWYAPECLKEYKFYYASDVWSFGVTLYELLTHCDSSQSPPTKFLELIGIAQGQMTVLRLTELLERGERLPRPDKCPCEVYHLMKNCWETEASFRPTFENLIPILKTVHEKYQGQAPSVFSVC
Chain of JAK2 (O60674 whole entry): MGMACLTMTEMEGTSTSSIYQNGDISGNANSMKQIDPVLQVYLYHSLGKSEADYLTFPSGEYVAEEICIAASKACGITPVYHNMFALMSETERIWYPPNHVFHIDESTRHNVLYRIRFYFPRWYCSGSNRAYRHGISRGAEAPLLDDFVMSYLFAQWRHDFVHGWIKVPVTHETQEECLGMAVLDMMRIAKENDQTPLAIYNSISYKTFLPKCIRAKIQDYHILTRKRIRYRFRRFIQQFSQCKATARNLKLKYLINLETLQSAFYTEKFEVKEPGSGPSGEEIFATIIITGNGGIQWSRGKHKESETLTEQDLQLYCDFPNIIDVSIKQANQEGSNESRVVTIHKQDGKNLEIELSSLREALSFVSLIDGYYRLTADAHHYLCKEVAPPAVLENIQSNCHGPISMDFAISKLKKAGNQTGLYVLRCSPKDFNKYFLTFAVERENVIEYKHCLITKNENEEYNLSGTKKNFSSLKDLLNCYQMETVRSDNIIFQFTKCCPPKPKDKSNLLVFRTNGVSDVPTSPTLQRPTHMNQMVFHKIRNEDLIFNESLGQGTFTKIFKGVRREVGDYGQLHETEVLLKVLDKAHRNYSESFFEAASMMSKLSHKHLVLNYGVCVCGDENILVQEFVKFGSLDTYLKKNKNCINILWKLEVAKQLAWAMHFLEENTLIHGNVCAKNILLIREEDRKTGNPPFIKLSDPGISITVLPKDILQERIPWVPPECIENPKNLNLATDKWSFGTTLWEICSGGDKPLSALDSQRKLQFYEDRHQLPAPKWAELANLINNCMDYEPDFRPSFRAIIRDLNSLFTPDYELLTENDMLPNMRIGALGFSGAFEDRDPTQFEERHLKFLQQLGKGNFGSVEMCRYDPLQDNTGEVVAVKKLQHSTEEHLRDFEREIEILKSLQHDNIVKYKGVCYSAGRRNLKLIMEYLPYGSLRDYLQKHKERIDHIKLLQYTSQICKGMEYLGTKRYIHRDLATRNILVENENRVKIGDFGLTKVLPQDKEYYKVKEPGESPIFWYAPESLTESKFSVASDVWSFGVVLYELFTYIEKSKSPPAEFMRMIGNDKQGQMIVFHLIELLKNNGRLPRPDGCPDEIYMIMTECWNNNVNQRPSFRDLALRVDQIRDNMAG
Chain of JAK1 (P23458 whole entry): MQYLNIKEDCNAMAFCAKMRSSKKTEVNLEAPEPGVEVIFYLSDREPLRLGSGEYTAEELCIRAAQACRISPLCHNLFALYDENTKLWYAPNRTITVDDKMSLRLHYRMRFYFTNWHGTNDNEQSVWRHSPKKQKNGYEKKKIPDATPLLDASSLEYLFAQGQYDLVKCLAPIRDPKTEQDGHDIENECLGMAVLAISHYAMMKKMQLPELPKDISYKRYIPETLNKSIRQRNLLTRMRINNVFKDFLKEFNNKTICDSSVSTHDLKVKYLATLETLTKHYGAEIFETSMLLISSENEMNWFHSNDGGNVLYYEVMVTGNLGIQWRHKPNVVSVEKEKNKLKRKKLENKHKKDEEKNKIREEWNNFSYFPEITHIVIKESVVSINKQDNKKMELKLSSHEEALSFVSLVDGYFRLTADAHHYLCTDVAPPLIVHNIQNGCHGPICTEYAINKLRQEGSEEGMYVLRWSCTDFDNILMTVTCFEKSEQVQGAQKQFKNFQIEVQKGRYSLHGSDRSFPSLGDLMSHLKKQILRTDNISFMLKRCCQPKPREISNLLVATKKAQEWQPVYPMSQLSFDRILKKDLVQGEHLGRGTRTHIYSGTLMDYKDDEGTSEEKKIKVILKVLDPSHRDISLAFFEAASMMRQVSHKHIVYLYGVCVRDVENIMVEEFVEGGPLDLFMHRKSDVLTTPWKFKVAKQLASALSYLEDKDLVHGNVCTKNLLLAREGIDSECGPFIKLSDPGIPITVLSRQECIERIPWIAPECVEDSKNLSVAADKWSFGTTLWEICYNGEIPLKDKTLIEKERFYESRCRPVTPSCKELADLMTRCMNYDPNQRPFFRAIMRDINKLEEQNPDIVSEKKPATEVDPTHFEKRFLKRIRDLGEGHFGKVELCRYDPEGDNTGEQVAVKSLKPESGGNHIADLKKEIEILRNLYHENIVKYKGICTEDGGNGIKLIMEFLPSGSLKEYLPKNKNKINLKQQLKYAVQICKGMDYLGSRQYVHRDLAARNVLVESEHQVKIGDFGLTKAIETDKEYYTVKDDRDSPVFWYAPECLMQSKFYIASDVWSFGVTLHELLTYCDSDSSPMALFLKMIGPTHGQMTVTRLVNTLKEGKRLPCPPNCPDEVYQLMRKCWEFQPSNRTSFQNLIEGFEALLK

`Cc1cnc2nc1NCCCCCNC(=O)c1ccc(cc1)-c1cnc(F)c(c1)N2` [Compound 1, 2^6-fluoro-4^5-methyl-3,5,11-triaza-4 (2,4)-pyrimidina-2(3,5)-pyridina-1(1,4)-benzenacyclododecaphan-12-one]: the IC50 is 101 to 1000 nM at JAK1, 1000 to 10000 nM at JAK2, 1000 to 10000 nM at JAK3 and greater than 10000 nM at TYK2.

With `Cc1cnc2nc1NCCCCCCC(=O)N1CCN(CC1)c1cnc(F)c(c1)N2` [Compound 2, 2^6-fluoro-4^5-methyl-3,5-diaza-4(2,4)-pyrimidina-1(1,4)-piperazina-2(3,5)-pyridinacyclododecaphan-12-one], the IC50 lay in the range of 101 to 1000 nM at JAK1, 101 to 1000 nM at JAK2, 1000 to 10000 nM on JAK3 and 1000 to 10000 nM on TYK2.

`Cc1cnc2nc1NCCCCCNC(=O)c1ccc(c(F)c1)-c1cnc(F)c(c1)N2` [Compound 3, 1^2,2^6-difluoro-4^5-methyl-3,5,11-triaza-4(2,4)-pyrimidina-2(3,5)-pyridina-1(1,4)-benzenacyclododecaphan-12-one]: the IC50 is 11 to 100 nM at JAK1, 11 to 100 nM against JAK2, 101 to 1000 nM at JAK3 and 1000 to 10000 nM at TYK2.

Regarding `O=C1NCCCCCNc2nc(ncc2F)Nc2cc(cnc2F)-c2ccc1cc2` [Compound 4, 2^6,4^5-difluoro-3,5,11-triaza-4(2,4)-pyrimidina-2(3,5)-pyridina-1(1,4)-benzenacyclododecaphan-12-one], the IC50 on JAK1 was 1000 to 10000 nM; at JAK2 it was 101 to 1000 nM; on JAK3, 1000 to 10000 nM; on TYK2, greater than 10000 nM.

`COc1cnc2nc1NCCCCCNC(=O)c1ccc(cc1)-c1cnc(F)c(c1)N2` [Compound 5, 2^6-fluoro-4^5-methoxy-3,5,11-triaza-4(2,4)-pyrimidina-2(3,5)-pyridina-1(1,4)-benzenacyclododecaphan-12-one]: the IC50 at JAK1 is 1000 to 10000 nM; at JAK2, 1000 to 10000 nM; at JAK3 it was 1000 to 10000 nM; at TYK2, greater than 10000 nM.

On to `Cc1cnc2nc1NCCCCCNC(=O)c1ccc(cc1F)-c1cnc(F)c(c1)N2` [Compound 6, 1^3,2^6-difluoro-4^5-methyl-3,5,11-triaza-4(2,4)-pyrimidina-2(3,5)-pyridina-1(1,4)-benzenacyclododecaphan-12-one], for which the IC50 fell in the range of 11 to 100 nM on JAK1, 101 to 1000 nM against JAK2, 101 to 1000 nM on JAK3 and 1000 to 10000 nM on TYK2.

As to `Cc1cnc2nc1NCCCCNC(=O)c1ccc(cc1F)-c1cnc(F)c(c1)N2` [Compound 7, 1^2,2^6-difluoro-4^5-methyl-3,5,10-triaza-4(2,4)-pyrimidina-2(3,5)-pyridina-1(1,4)-benzenacycloundecaphan-11-one], the IC50 lay within 11 to 100 nM on JAK1, 101 to 1000 nM against JAK2, 1000 to 10000 nM on JAK3 and 1000 to 10000 nM on TYK2.

`COc1cc2ccc1C(=O)NCCCCCNc1nc(ncc1C)Nc1cc-2cnc1F` [Compound 8, 2^6-fluoro-1^3-methoxy-4^5-methyl-3,5,11-triaza-4(2,4)-pyrimidina-2(3,5)-pyridina-1(1,4)-benzenacyclododecaphan-12-one]: the IC50 is 101 to 1000 nM on JAK1, 1000 to 10000 nM against JAK2, 1000 to 10000 nM at JAK3 and greater than 10000 nM at TYK2.

Regarding `Cc1cnc2nc1NCCCCCNC(=O)c1ccc(cc1N)-c1cnc(F)c(c1)N2` [Compound 9, 1^3-amino-2^6-difluoro-4^5-methyl-3,5,11-triaza-4(2,4)-pyrimidina-2(3,5)-pyridina-1(1,4)-benzenacyclododecaphan-12-one], the IC50 fell in the range of 101 to 1000 nM on JAK1, 101 to 1000 nM against JAK2, 1000 to 10000 nM at JAK3 and 1000 to 10000 nM on TYK2.

With `Cc1cnc2nc1NCCCCCNC(=O)c1ccc(cc1[N+](=O)[O-])-c1cnc(F)c(c1)N2` [Compound 10, 2^6-fluoro-4^5-methyl-1^3-nitro-3,5,11-triaza-4(2,4)-pyrimidina-2(3,5)-pyridina-1(1,4)-benzenacydododecaphan-12-one], the IC50 was in the range of 11 to 100 nM on JAK1, 101 to 1000 nM on JAK2, 1000 to 10000 nM at JAK3 and 1000 to 10000 nM on TYK2.

With `Cc1cc2ccc1C(=O)NCCCCCNc1nc(ncc1C)Nc1cc-2cnc1F` [Compound 11, 2^6-fluoro-l^3,4^5-dimethyl-3,5,11-triaza-4(2,4)-pyrimidina-2(3,5)-pyridina-1(1,4)-benzenacyclododecaphan-12-one], the IC50 was in the range of 101 to 1000 nM at JAK1, 101 to 1000 nM against JAK2, 1000 to 10000 nM on JAK3 and 1000 to 10000 nM at TYK2.

For `Cc1cnc2nc1NCCCCCCCNC(=O)c1ccc(cc1F)-c1cnc(F)c(c1)N2` [Compound 12, I^3,2^6-difluoro-4^5-methyl-3,5,13-triaza-4(2,4)-pyrimidina-2(3,5)-pyridina-1(1,4)-benzenacydododecaphan-12-one], the IC50 on JAK1 is 101 to 1000 nM; on JAK2, 101 to 1000 nM; at JAK3, 1000 to 10000 nM; on TYK2, 1000 to 10000 nM.

For `Cc1cnc2nc1NCCCCCCNC(=O)c1ccc(cc1F)-c1cnc(F)c(c1)N2` [Compound 13, I^3,2^6-difluoro-4^5-methyl-3,5,12-triaza-4(2,4)-pyrimidina-2(3,5)-pyridina-1(1,4)-benzenacyclotridecaphan-13-one], the IC50 on JAK1 is 101 to 1000 nM; on JAK2, 101 to 1000 nM; at JAK3, 1000 to 10000 nM; on TYK2 it was greater than 10000 nM.

As for `Cc1cnc2nc1NCCCCCNC(=O)c1ccc(cc1Cl)-c1cnc(F)c(c1)N2` [Compound 14, 1^3-chloro-2^6-fluoro-4^5-methyl-3,5,11-triaza-4(2,4)-pyrimidina-2(3,5)-pyridina-1(1,4)-benzenacyclododecaphan-12-one], the IC50 on JAK1 lay within 101 to 1000 nM; on JAK2 it was 101 to 1000 nM; on JAK3, 1000 to 10000 nM; at TYK2 it was 1000 to 10000 nM.

As to `Cc1cnc2nc1Nc1cccc(c1)COCCCC(=O)N1CCN(CC1)c1cnc(F)c(c1)N2` [Compound 15, 2^6-fluoro-4^5-methyl-8-oxa-3,5-diaza-4(2,4)-pyrimidina-1(1,4)-piperazina-2(3,5)-pyridina-6(1,3)-benzenacyclododecaphan-12-one], the IC50 was 11 to 100 nM on JAK1, 101 to 1000 nM at JAK2, 101 to 1000 nM at JAK3 and 1000 to 10000 nM on TYK2.

`O=C1NCCOCc2cccc(c2)Nc2nc(ncc2F)Nc2cc(cnc2F)-c2ccc1cc2` [Compound 16, 2^6,4^5-difluoro-oxa-3,5,11-triaza-4(2,4)-pyrimidina-2(3,5)-pyridina-1(1,4),6(1,3)-dibenzenacyclododecaphan-12-one]: the IC50 on JAK1 is 11 to 100 nM; on JAK2, 11 to 100 nM; at JAK3, 11 to 100 nM; at TYK2, 1000 to 10000 nM.
